Laboratory results reported in patent US20220119354A1, “DIAMINO-SUBSTITUTED PYRIDINES AND PYRIMIDINES AS HERBICIDES” (FMC Corporation, priority 2019, published 2022).

Assays:
Type in all cases: in vivo
[1] = tested on: ragweed (common ragweed, Ambrosia elatior); assay: Test A postemergence, ragweed; conditions: 0 to 100 scale
How it was run: (§1)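 Seeds sown in loam–sand blend received a directed soil spray of test chemical in non-phytotoxic solvent with surfactant (preemergence); postemergence plants at 2–10 cm, one- to two-leaf stage, were sprayed with the same formulation. Injury rated visually versus untreated controls after ~10 d in greenhouse, 0–100 scale.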

[2] = tested on: foxtail, giant (Setaria faberii); assay: Test A preemergence, giant foxtail; conditions: 0 to 100 scale
How it was run: as §1

[3] = tested on: barnyardgrass (Echinochloa crus-galli); assay: Test A postemergence, barnyardgrass; conditions: 0 to 100 scale
How it was run: as §1

[4] = tested on: barnyardgrass (Echinochloa crus-galli); assay: Test A preemergence, barnyardgrass; conditions: 0 to 100 scale
How it was run: as §1

[5] = tested on: ragweed (common ragweed, Ambrosia elatior); assay: Test A preemergence, ragweed; conditions: 0 to 100 scale
How it was run: as §1

[6] = tested on: ryegrass, Italian (Lolium multiflorum); assay: Test A postemergence, Italian ryegrass; conditions: 0 to 100 scale
How it was run: as §1

[7] = tested on: sedge, umbrella (small-flower umbrella sedge, Cyperus difformis); assay: Test B flooded paddy test, umbrella sedge; conditions: Flood, 250 g ai/ha, applied to paddy water, 2-leaf stage, visual evaluation after 13 to 15 d
How it was run: (§2)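 Application was made into paddy water of pots flooded 3 cm deep at treatment, with seedlings at the 2-leaf stage. That flood level was kept throughout, and plants stayed under glass 13 to 15 d before visual assessment on a 0–100 control scale.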

[8] = tested on: pigweed (Amaranthus retroflexus); assay: Test A preemergence, pigweed; conditions: 0 to 100 scale
How it was run: as §1

[9] = tested on: blackgrass (Alopecurus myosuroides); assay: Test A postemergence, blackgrass; conditions: 0 to 100 scale
How it was run: as §1

[10] = tested on: pigweed (Amaranthus retroflexus); assay: Test A postemergence, pigweed; conditions: 0 to 100 scale
How it was run: as §1

rice (Oryza sativa) = assay: Test B flooded paddy test, rice; conditions: Flood, 250 g ai/ha, applied to paddy water, 2-leaf stage, visual evaluation after 13 to 15 d
How it was run: as §2

[11] = tested on: ducksalad (Heteranthera limosa); assay: Test B flooded paddy test, ducksalad; conditions: Flood, 250 g ai/ha, applied to paddy water, 2-leaf stage, visual evaluation after 13 to 15 d
How it was run: as §2

corn (Zea mays) = assay: Test A postemergence, corn; conditions: 0 to 100 scale
How it was run: as §1

[12] = tested on: barnyardgrass (Echinochloa crus-galli); assay: Test B flooded paddy test, barnyardgrass; conditions: Flood, 250 g ai/ha, applied to paddy water, 2-leaf stage, visual evaluation after 13 to 15 d
How it was run: as §2

[13] = tested on: wheat (Triticum aestivum); assay: Test A postemergence, wheat; conditions: 0 to 100 scale
How it was run: as §1

[14] = tested on: ryegrass, Italian (Lolium multiflorum); assay: Test A preemergence, Italian ryegrass; conditions: 0 to 100 scale
How it was run: as §1

kochia (Kochia scoparia) [15] = assay: Test A postemergence, kochia; conditions: 0 to 100 scale
How it was run: as §1

kochia (Kochia scoparia) [16] = assay: Test A preemergence, kochia; conditions: 0 to 100 scale
How it was run: as §1

[17] = tested on: foxtail, giant (Setaria faberii); assay: Test A postemergence, giant foxtail; conditions: 0 to 100 scale
How it was run: as §1

[18] = tested on: galium (catchweed bedstraw, Galium aparine); assay: Test A postemergence, galium; conditions: 0 to 100 scale
How it was run: as §1

Row | Structure (SMILES) | Plant response rating, Ragweed ([1]; 125 g ai/ha) | Plant response rating, Ragweed ([1]; 500 g ai/ha) | Plant response rating, Foxtail, Giant ([2]; 125 g ai/ha) | Plant response rating, Foxtail, Giant ([2]; 500 g ai/ha) | Plant response rating, Barnyardgrass ([3]; 125 g ai/ha) | Plant response rating, Barnyardgrass ([3]; 500 g ai/ha) | Plant response rating, Barnyardgrass ([4]; 125 g ai/ha) | Plant response rating, Barnyardgrass ([4]; 500 g ai/ha) | Plant response rating, Ragweed ([5]; 125 g ai/ha) | Plant response rating, Ragweed ([5]; 500 g ai/ha) | Plant response rating, Ryegrass, Italian ([6]; 125 g ai/ha) | Plant response rating, Ryegrass, Italian ([6]; 500 g ai/ha) | Plant response rating, Sedge, Umbrella (0 to 100 scale, 0 is no effect, 100 is complete control) [7] | Plant response rating, Pigweed ([8]; 125 g ai/ha) | Plant response rating, Pigweed ([8]; 500 g ai/ha) | Plant response rating, Blackgrass ([9]; 125 g ai/ha) | Plant response rating, Blackgrass ([9]; 500 g ai/ha) | Plant response rating, Pigweed ([10]; 125 g ai/ha) | Plant response rating, Pigweed ([10]; 500 g ai/ha) | Plant response rating, Rice (0 to 100 scale, 0 is no effect, 100 is complete control) (rice (Oryza sativa)) | also measured
1 | C[C@@H](Nc1ncc(C(F)(F)F)c(N)n1)c1cc2ccc(C(F)(F)F)cc2o1 [Compound 15] | 20 | 40 | 20 | 90 | 30 | 30 | 20 | 70 | 30 | 90 | 0 | 30 | 0 | 80 | 100 | 0 | 30 | 90 | 90 | 0 | Plant response rating, Ducksalad (0 to 100 scale, 0 is no effect, 100 is complete control) [11]: 0; Plant response rating, Corn (corn (Zea mays); 125 g ai/ha): 0; Plant response rating, Corn (corn (Zea mays); 500 g ai/ha): 20; Plant response rating, Barnyardgrass (0 to 100 scale, 0 is no effect, 100 is complete control) [12]: 0; Plant response rating, Wheat ([13]; 125 g ai/ha): 0; Plant response rating, Wheat ([13]; 500 g ai/ha): 0; Plant response rating, Ryegrass, Italian ([14]; 125 g ai/ha): 0; Plant response rating, Ryegrass, Italian ([14]; 500 g ai/ha): 70; Plant response rating, Kochia (kochia (Kochia scoparia) [15]; 125 g ai/ha): 40; Plant response rating, Kochia (kochia (Kochia scoparia) [15]; 500 g ai/ha): 80; Plant response rating, Kochia (kochia (Kochia scoparia) [16]; 125 g ai/ha): 40; Plant response rating, Kochia (kochia (Kochia scoparia) [16]; 500 g ai/ha): 50; Plant response rating, Foxtail, Giant ([17]; 125 g ai/ha): 30; Plant response rating, Foxtail, Giant ([17]; 500 g ai/ha): 80; Plant response rating, Galium ([18]; 125 g ai/ha): 60; Plant response rating, Galium ([18]; 500 g ai/ha): 80
2 | CCc1ccc2oc([C@@H](C)Nc3ncc(C(F)(F)F)c(N)n3)cc2c1 [Compound 17] | 0 | 20 | 0 | 20 | 0 | 0 | 0 | 0 | 0 | 50 | 0 | 0 | 0 | 0 | 0 | 0 | 0 | 0 | 20 | 0 | Plant response rating, Ducksalad (0 to 100 scale, 0 is no effect, 100 is complete control) [11]: 0; Plant response rating, Corn (corn (Zea mays); 125 g ai/ha): 0; Plant response rating, Corn (corn (Zea mays); 500 g ai/ha): 0; Plant response rating, Barnyardgrass (0 to 100 scale, 0 is no effect, 100 is complete control) [12]: 0; Plant response rating, Wheat ([13]; 125 g ai/ha): 0; Plant response rating, Wheat ([13]; 500 g ai/ha): 0; Plant response rating, Ryegrass, Italian ([14]; 125 g ai/ha): 0; Plant response rating, Ryegrass, Italian ([14]; 500 g ai/ha): 20; Plant response rating, Kochia (kochia (Kochia scoparia) [15]; 125 g ai/ha): 0; Plant response rating, Kochia (kochia (Kochia scoparia) [15]; 500 g ai/ha): 0; Plant response rating, Kochia (kochia (Kochia scoparia) [16]; 125 g ai/ha): 0; Plant response rating, Kochia (kochia (Kochia scoparia) [16]; 500 g ai/ha): 0; Plant response rating, Foxtail, Giant ([17]; 125 g ai/ha): 20; Plant response rating, Foxtail, Giant ([17]; 500 g ai/ha): 20; Plant response rating, Galium ([18]; 125 g ai/ha): 0; Plant response rating, Galium ([18]; 500 g ai/ha): 0
